Data taken from patent US6353029B1, “Storage stable tretinoin and 4-hydroxyanisole containing topical composition” (Bristol-Myers Squibb Company, priority 2000, dated 2002).
Like-named read-outs stand apart in the source and are kept apart here.

How the values were obtained:
[1] = Physical and chemical stability of tretinoin/4-HA cream compositions; type: physicochemical; conditions: creams with other emulsifiers and thickeners added, containing 4-HA
From the text: In an effort to develop a pharmaceutically elegant dermatological composition containing tretinoin and 4-HA and having long term storage stability (as hereinafter defined), the present inventors incorporated the tretinoin and 4-HA in cream compositions. The oil-in-water emulsion based creams broke. Most likely, this was due to the 4-HA component as it is soluble in both the oil phase and water phase.

[2] = cited from earlier work

stability of tretinoin [1]: very unstable
Structure (SMILES): CC1=C(/C=C/C(C)=C/C=C/C(C)=C/C(=O)O)C(C)(C)CCC1 [tretinoin, all-trans retinoic acid]
shelf life of tretinoin ([2]; aqueous gel with Cremophor RH40 as solubilizing agent): 3 months | shelf life of tretinoin ([2]; aqueous gel without Cremophor RH40): 10 months | shelf life of tretinoin ([2]; propylene glycol-alcohol solution at 25° C, 0.05% tretinoin): 6.7 months
